{"source": "the supplement of paper PMC10307832", "assay_in_all_cases": "relative viability (nuclei count vs DMSO), 5 days (fraction); higher = more cells survive", "key": {"[1]": {"test_system": "201T", "in_short": "(§1)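 Each reported value is a median over duplicate plates. It expresses relative viability: treated-well nuclei count divided by vehicle-well nuclei count. Lung cancer cell lines in 1536-well plates were dosed by pin tool a day after seeding, alone with one drug or with a fixed anchor-drug dose plus five library-drug doses (not always all listed) in √10 steps, and nuclei were counted after 5 days.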"}, "[2]": {"test_system": "A-427", "in_short": "as §1"}, "[3]": {"test_system": "ABC-1", "in_short": "as §1"}, "[4]": {"test_system": "BEN", "in_short": "as §1"}, "[5]": {"test_system": "CAL-12T", "in_short": "as §1"}, "[6]": {"test_system": "H3255", "in_short": "as §1"}, "[7]": {"test_system": "LC-2-ad", "in_short": "as §1"}, "[8]": {"test_system": "LCLC-97TM1", "in_short": "as §1"}, "[9]": {"test_system": "NCI-H1650", "in_short": "as §1"}, "[10]": {"test_system": "NCI-H1651", "in_short": "as §1"}, "[11]": {"test_system": "NCI-H1915", "in_short": "as §1"}, "[12]": {"test_system": "NCI-H1944", "in_short": "as §1"}, "[13]": {"test_system": "NCI-H2023", "in_short": "as §1"}, "[14]": {"test_system": "NCI-H2087", "in_short": "as §1"}, "[15]": {"test_system": "NCI-H441", "in_short": "as §1"}, "[16]": {"test_system": "NCI-H460", "in_short": "as §1"}, "[17]": {"test_system": "NCI-H520", "in_short": "as §1"}, "[18]": {"test_system": "NCI-H596", "in_short": "as §1"}, "[19]": {"test_system": "NCI-H650", "in_short": "as §1"}, "[20]": {"test_system": "NCI-H661", "in_short": "as §1"}, "[21]": {"test_system": "NCI-H727", "in_short": "as §1"}, "[22]": {"test_system": "PC-3 [JPC-3]", "in_short": "as §1"}}}
{"compound": "Cc1sc2c(c1C)C(c1ccc(Cl)cc1)=N[C@@H](CC(=O)OC(C)(C)C)c1nnc(C)n1-2", "note": "[JQ1] + C[C@@H](Oc1cc(-c2cnn(C3CCNCC3)c2)cnc1N)c1c(Cl)ccc(F)c1Cl [Crizotinib] (partner 1 µM)", "values": [{"measurement": "relative viability", "setting": "[1]; first compound 0.04 µM", "result": 1.05}, {"measurement": "relative viability", "setting": "[1]; first compound 0.1265 µM", "result": 0.882}, {"measurement": "relative viability", "setting": "[1]; first compound 0.4 µM", "result": 0.93}, {"measurement": "relative viability", "setting": "[1]; first compound 1.265 µM", "result": 0.73}, {"measurement": "relative viability", "setting": "[1]; first compound 4 µM", "result": 0.602}, {"measurement": "relative viability", "setting": "[2]; first compound 0.04 µM", "result": 0.997}, {"measurement": "relative viability", "setting": "[2]; first compound 0.1265 µM", "result": 0.947}, {"measurement": "relative viability", "setting": "[2]; first compound 0.4 µM", "result": 0.658}, {"measurement": "relative viability", "setting": "[2]; first compound 1.265 µM", "result": 0.691}, {"measurement": "relative viability", "setting": "[2]; first compound 4 µM", "result": 0.516}, {"measurement": "relative viability", "setting": "[3]; first compound 0.04 µM", "result": 0.844}, {"measurement": "relative viability", "setting": "[3]; first compound 0.1265 µM", "result": 1.09}, {"measurement": "relative viability", "setting": "[3]; first compound 0.4 µM", "result": 0.988}, {"measurement": "relative viability", "setting": "[3]; first compound 1.265 µM", "result": 0.569}, {"measurement": "relative viability", "setting": "[3]; first compound 4 µM", "result": 0.276}, {"measurement": "relative viability", "setting": "[4]; first compound 0.04 µM", "result": 0.67}, {"measurement": "relative viability", "setting": "[4]; first compound 0.1265 µM", "result": 0.84}, {"measurement": "relative viability", "setting": "[4]; first compound 0.4 µM", "result": 0.51}, {"measurement": "relative viability", "setting": "[4]; first compound 1.265 µM", "result": 0.335}, {"measurement": "relative viability", "setting": "[4]; first compound 4 µM", "result": 0.229}, {"measurement": "relative viability", "setting": "[5]; first compound 0.04 µM", "result": 0.528}, {"measurement": "relative viability", "setting": "[5]; first compound 0.1265 µM", "result": 0.316}, {"measurement": "relative viability", "setting": "[5]; first compound 0.4 µM", "result": 0.316}, {"measurement": "relative viability", "setting": "[5]; first compound 1.265 µM", "result": 0.133}, {"measurement": "relative viability", "setting": "[5]; first compound 4 µM", "result": 0.103}, {"measurement": "relative viability", "setting": "[6]; first compound 0.04 µM", "result": 0.828}, {"measurement": "relative viability", "setting": "[6]; first compound 0.1265 µM", "result": 0.715}, {"measurement": "relative viability", "setting": "[6]; first compound 0.4 µM", "result": 0.741}, {"measurement": "relative viability", "setting": "[6]; first compound 1.265 µM", "result": 0.316}, {"measurement": "relative viability", "setting": "[6]; first compound 4 µM", "result": 0.221}, {"measurement": "relative viability", "setting": "[7]; first compound 0.04 µM", "result": 0.44}, {"measurement": "relative viability", "setting": "[7]; first compound 0.1265 µM", "result": 0.348}, {"measurement": "relative viability", "setting": "[7]; first compound 0.4 µM", "result": 0.308}, {"measurement": "relative viability", "setting": "[7]; first compound 1.265 µM", "result": 0.277}, {"measurement": "relative viability", "setting": "[7]; first compound 4 µM", "result": 0.258}, {"measurement": "relative viability", "setting": "[8]; first compound 0.1265 µM", "result": 0.285}, {"measurement": "relative viability", "setting": "[8]; first compound 0.4 µM", "result": 0.19}, {"measurement": "relative viability", "setting": "[8]; first compound 1.265 µM", "result": 0.118}, {"measurement": "relative viability", "setting": "[8]; first compound 4 µM", "result": 0.117}, {"measurement": "relative viability", "setting": "[9]; first compound 0.04 µM", "result": 0.948}, {"measurement": "relative viability", "setting": "[9]; first compound 0.1265 µM", "result": 0.609}, {"measurement": "relative viability", "setting": "[9]; first compound 0.4 µM", "result": 0.735}, {"measurement": "relative viability", "setting": "[9]; first compound 1.265 µM", "result": 0.126}, {"measurement": "relative viability", "setting": "[9]; first compound 4 µM", "result": 0.141}, {"measurement": "relative viability", "setting": "[10]; first compound 0.04 µM", "result": 0.795}, {"measurement": "relative viability", "setting": "[10]; first compound 0.1265 µM", "result": 0.784}, {"measurement": "relative viability", "setting": "[10]; first compound 0.4 µM", "result": 0.701}, {"measurement": "relative viability", "setting": "[10]; first compound 1.265 µM", "result": 0.639}, {"measurement": "relative viability", "setting": "[10]; first compound 4 µM", "result": 0.548}, {"measurement": "relative viability", "setting": "[11]; first compound 0.04 µM", "result": 0.891}, {"measurement": "relative viability", "setting": "[11]; first compound 0.1265 µM", "result": 0.829}, {"measurement": "relative viability", "setting": "[11]; first compound 0.4 µM", "result": 0.735}, {"measurement": "relative viability", "setting": "[11]; first compound 1.265 µM", "result": 0.462}, {"measurement": "relative viability", "setting": "[11]; first compound 4 µM", "result": 0.233}, {"measurement": "relative viability", "setting": "[12]; first compound 0.04 µM", "result": 1.02}, {"measurement": "relative viability", "setting": "[12]; first compound 0.1265 µM", "result": 0.905}, {"measurement": "relative viability", "setting": "[12]; first compound 0.4 µM", "result": 0.719}, {"measurement": "relative viability", "setting": "[12]; first compound 1.265 µM", "result": 0.574}, {"measurement": "relative viability", "setting": "[12]; first compound 4 µM", "result": 0.447}, {"measurement": "relative viability", "setting": "[13]; first compound 0.04 µM", "result": 0.544}, {"measurement": "relative viability", "setting": "[13]; first compound 0.1265 µM", "result": 0.543}, {"measurement": "relative viability", "setting": "[13]; first compound 0.4 µM", "result": 0.485}, {"measurement": "relative viability", "setting": "[13]; first compound 1.265 µM", "result": 0.227}, {"measurement": "relative viability", "setting": "[13]; first compound 4 µM", "result": 0.158}, {"measurement": "relative viability", "setting": "[14]; first compound 0.04 µM", "result": 0.901}, {"measurement": "relative viability", "setting": "[14]; first compound 0.4 µM", "result": 0.862}, {"measurement": "relative viability", "setting": "[14]; first compound 1.265 µM", "result": 0.602}, {"measurement": "relative viability", "setting": "[14]; first compound 4 µM", "result": 0.344}, {"measurement": "relative viability", "setting": "[15]; first compound 0.04 µM", "result": 0.813}, {"measurement": "relative viability", "setting": "[15]; first compound 0.1265 µM", "result": 0.616}, {"measurement": "relative viability", "setting": "[15]; first compound 0.4 µM", "result": 0.713}, {"measurement": "relative viability", "setting": "[15]; first compound 1.265 µM", "result": 0.297}, {"measurement": "relative viability", "setting": "[15]; first compound 4 µM", "result": 0.221}, {"measurement": "relative viability", "setting": "[16]; first compound 0.04 µM", "result": 0.806}, {"measurement": "relative viability", "setting": "[16]; first compound 0.1265 µM", "result": 0.597}, {"measurement": "relative viability", "setting": "[16]; first compound 0.4 µM", "result": 0.532}, {"measurement": "relative viability", "setting": "[16]; first compound 1.265 µM", "result": 0.0339}, {"measurement": "relative viability", "setting": "[16]; first compound 4 µM", "result": 0.0299}, {"measurement": "relative viability", "setting": "[17]; first compound 0.04 µM", "result": 0.97}, {"measurement": "relative viability", "setting": "[17]; first compound 0.1265 µM", "result": 0.997}, {"measurement": "relative viability", "setting": "[17]; first compound 0.4 µM", "result": 0.578}, {"measurement": "relative viability", "setting": "[17]; first compound 1.265 µM", "result": 0.368}, {"measurement": "relative viability", "setting": "[17]; first compound 4 µM", "result": 0.166}, {"measurement": "relative viability", "setting": "[18]; first compound 0.04 µM", "result": 0.977}, {"measurement": "relative viability", "setting": "[18]; first compound 0.1265 µM", "result": 0.85}, {"measurement": "relative viability", "setting": "[18]; first compound 0.4 µM", "result": 0.472}, {"measurement": "relative viability", "setting": "[18]; first compound 1.265 µM", "result": 0.498}, {"measurement": "relative viability", "setting": "[18]; first compound 4 µM", "result": 0.432}, {"measurement": "relative viability", "setting": "[19]; first compound 0.04 µM", "result": 0.7}, {"measurement": "relative viability", "setting": "[19]; first compound 0.1265 µM", "result": 0.445}, {"measurement": "relative viability", "setting": "[19]; first compound 0.4 µM", "result": 0.343}, {"measurement": "relative viability", "setting": "[19]; first compound 1.265 µM", "result": 0.174}, {"measurement": "relative viability", "setting": "[19]; first compound 4 µM", "result": 0.195}, {"measurement": "relative viability", "setting": "[20]; first compound 0.04 µM", "result": 1}, {"measurement": "relative viability", "setting": "[20]; first compound 0.1265 µM", "result": 1.08}, {"measurement": "relative viability", "setting": "[20]; first compound 1.265 µM", "result": 1.05}, {"measurement": "relative viability", "setting": "[20]; first compound 4 µM", "result": 0.776}, {"measurement": "relative viability", "setting": "[21]; first compound 0.04 µM", "result": 0.823}, {"measurement": "relative viability", "setting": "[21]; first compound 0.1265 µM", "result": 1.02}, {"measurement": "relative viability", "setting": "[21]; first compound 0.4 µM", "result": 0.631}, {"measurement": "relative viability", "setting": "[21]; first compound 1.265 µM", "result": 0.338}, {"measurement": "relative viability", "setting": "[21]; first compound 4 µM", "result": 0.362}, {"measurement": "relative viability", "setting": "[22]; first compound 0.04 µM", "result": 1.06}, {"measurement": "relative viability", "setting": "[22]; first compound 0.1265 µM", "result": 1.03}, {"measurement": "relative viability", "setting": "[22]; first compound 0.4 µM", "result": 0.96}, {"measurement": "relative viability", "setting": "[22]; first compound 1.265 µM", "result": 0.851}, {"measurement": "relative viability", "setting": "[22]; first compound 4 µM", "result": 0.512}]}
